Values of other authors in patent publication US20170342372A1, “CELL CULTURE MEDIA” (MERCK PATENT GMBH, priority 2014, published 2017).

Details: water / aqueous solvents

Row | solubility in water (in words) | Structure (SMILES)
1 | moderate solubility | CC[C@H](C)[C@H](N)C(=O)O [isoleucine]
2 | poorly soluble | N[C@@H](CSSC[C@H](N)C(=O)O)C(=O)O [cystine]
3 | moderate solubility | CC(C)C[C@H](N)C(=O)O [leucine]
4 | moderate solubility | CC(C)[C@H](N)C(=O)O [valine]
